Counter-ions that a name gives are not always drawn.
Tests used:
[1] = biological target: human cloned 5-HT6 receptors (Homo sapiens, UniProt P50406)
Chain of human cloned 5-HT6 receptors (P50406 whole entry): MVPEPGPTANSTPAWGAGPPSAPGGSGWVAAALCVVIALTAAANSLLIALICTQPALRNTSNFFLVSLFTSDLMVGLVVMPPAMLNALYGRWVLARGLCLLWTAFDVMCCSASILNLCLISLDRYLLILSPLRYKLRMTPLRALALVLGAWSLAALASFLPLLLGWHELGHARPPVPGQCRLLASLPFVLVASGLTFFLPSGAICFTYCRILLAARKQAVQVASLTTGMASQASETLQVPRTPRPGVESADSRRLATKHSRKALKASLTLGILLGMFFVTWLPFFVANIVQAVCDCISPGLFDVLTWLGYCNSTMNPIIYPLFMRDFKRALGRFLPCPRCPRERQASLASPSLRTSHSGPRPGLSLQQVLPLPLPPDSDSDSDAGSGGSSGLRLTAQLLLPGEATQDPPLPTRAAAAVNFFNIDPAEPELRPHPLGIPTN

Structure (SMILES)	melting point [°C]	Ki [1] [nM]
NCCn1ccc2c3ccn(Cc4ccc(F)cc4)c(=O)c3ccc21 [Example 13, 3-(2-aminoethyl)-7-(4-fluorobenzyl)-3,7-dihydro-6H-pyrrolo[3,2-f]isoquinolin-6-one]	203 to 205	426
CN(C)CCn1ccc2c3ccn(Cc4ccc(F)cc4)c(=O)c3ccc21 [Example 14, 3-[2-(dimethylamino)ethyl]-7-(4-fluorobenzyl)-3,7-dihydro-6H-pyrrolo[3,2-f]isoquinolin-6-one]	221 to 223	379
O=c1c2ccc3c(ccn3CCN3CCCC3)c2ccn1Cc1ccc(F)cc1 [Example 15, 7-(4-fluorobenzyl)-3-(2-pyrrolidin-1-ylethyl)-3,7-dihydro-6H-pyrrolo[3,2-f]isoquinolin-6-one]	229 to 231	507
CN(C)CCCn1ccc2c3ccn(Cc4ccc(F)cc4)c(=O)c3ccc21 [Example 16, 3-[3-(dimethylamino)propyl]-7-(4-fluorobenzyl)-3,7-dihydro-6H-pyrrolo[3,2-f]isoquinolin-6-one]	49 to 51	–

Next, values leading:

melting point [°C]	Ki [1] [nM]	Structure (SMILES)
100 to 102	–	CN(C)CCn1ccc2ccc3c(=O)n(Cc4ccccc4)ccc3c21 (as salt: hydrochloride) [Example 6, 7-Benzyl-1-[2-(dimethylamino)ethyl]-1.7-dihydro-6H-pyrrolo[2,3-f]isoquinolin-6-one hydrochloride]
153 to 154	–	NCCn1ccc2ccc3c(=O)n(Cc4ccccc4)ccc3c21 (as salt: hydrochloride) [Example 7, 1-(2-Aminoethyl)-7-benzyl-1,7-dihydro-6H-pyrrolo[2,3-f]isoquinolin-6-one hydrochloride]
–	388	CN(C)CCn1ccc2ccc3c(=O)n(Cc4ccccc4)ccc3c21 [Example 6, 7-Benzyl-1-[2-(dimethylamino)ethyl]-1.7-dihydro-6H-pyrrolo[2,3-f]isoquinolin-6-one hydrochloride]
–	180	NCCn1ccc2ccc3c(=O)n(Cc4ccccc4)ccc3c21 [Example 7, 1-(2-Aminoethyl)-7-benzyl-1,7-dihydro-6H-pyrrolo[2,3-f]isoquinolin-6-one hydrochloride]
